Test results from patent publication US10750743B2, “Pyridazinone herbicides” (E.I. DU PONT DE NEMOURS AND COMPANY, priority 2015, dated 2020).

Columns and labels:
Format in all cases: in vivo
[1] = system: Foxtail, Green; test: Test A preemergence, directed soil spray, visual injury rating; details: 0 is no effect, 100 is complete control
[2] = system: barnyardgrass (Echinochloa crus-galli); test: as above; details: 0 is no effect, 100 is complete control
Outline: (§1)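 Seeds sown in a loam soil–sand blend received a directed preemergence soil spray of test chemical in a non-phytotoxic solvent mixture with surfactant. Postemergence plants were sprayed at 2 to 10 cm, one- to two-leaf stage. After approximately 10 d in greenhouse, injury was visually rated 0 (no effect) to 100 (complete control) against untreated controls.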

[3] = system: kochia (Kochia scoparia); test: as above; details: 0 is no effect, 100 is complete control
Outline: as §1

[4] = system: pigweed (Amaranthus retroflexus); test: as above; details: 0 is no effect, 100 is complete control
Outline: as §1

[5] = system: ragweed (common ragweed, Ambrosia elatior); test: as above; details: 0 is no effect, 100 is complete control
Outline: as §1

[6] = system: ryegrass, It. (Italian ryegrass, Lolium multiflorum); test: as above; details: 0 is no effect, 100 is complete control
Outline: as §1

[7] = system: barnyardgrass (Echinochloa crus-galli); test: Test B flooded paddy test, visual rating; details: Flood, 250 g ai/ha, applied to paddy water, rated after 13 to 15 d
Outline: (§2)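 Plants at the 2-leaf stage were flooded to 3 cm above soil, and test compounds were applied directly into the paddy water, which was held at that depth throughout. After 13 to 15 d in a greenhouse, injury was rated visually against untreated controls on a 0–100 scale (0 no effect, 100 complete control).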

[8] = system: ducksalad (Heteranthera limosa); test: Test B flooded paddy test, visual rating; details: Flood, 250 g ai/ha, applied to paddy water, rated after 13 to 15 d
Outline: as §2

[9] = system: rice (Oryza sativa); test: Test B flooded paddy test, visual rating; details: Flood, 250 g ai/ha, applied to paddy water, rated after 13 to 15 d
Outline: as §2

[10] = system: sedge, umbrella (small-flower umbrella sedge, Cyperus difformis); test: Test B flooded paddy test, visual rating; details: Flood, 250 g ai/ha, applied to paddy water, rated after 13 to 15 d
Outline: as §2

[11] = system: Foxtail, Green; test: Test A postemergence application, visual injury rating; details: for Plant response rating (0 to 100 scale), Foxtail, Green: 0 is no effect, 100 is complete control; for Foxtail, Green plant response rating: 0 to 100 scale, 0 no effect, 100 complete control
Outline: as §1

[12] = system: barnyardgrass (Echinochloa crus-galli); test: as above; details: 0 to 100 scale, 0 no effect, 100 complete control
Outline: as §1

[13] = system: blackgrass (Alopecurus myosuroides); test: as above; details: 0 to 100 scale, 0 no effect, 100 complete control
Outline: as §1

[14] = system: corn (Zea mays); test: as above; details: for Plant response rating (0 to 100 scale), Corn: 0 is no effect, 100 is complete control; for Corn plant response rating: 0 to 100 scale, 0 no effect, 100 complete control
Outline: as §1

[15] = system: galium (catchweed bedstraw, Galium aparine); test: as above; details: for Plant response rating (0 to 100 scale), Galium: 0 is no effect, 100 is complete control; for Galium plant response rating: 0 to 100 scale, 0 no effect, 100 complete control
Outline: as §1

[16] = system: kochia (Kochia scoparia); test: as above; details: for Plant response rating (0 to 100 scale), Kochia: 0 is no effect, 100 is complete control; for Kochia plant response rating: 0 to 100 scale, 0 no effect, 100 complete control
Outline: as §1

[17] = system: pigweed (Amaranthus retroflexus); test: as above; details: for Plant response rating (0 to 100 scale), Pigweed: 0 is no effect, 100 is complete control; for Pigweed plant response rating: 0 to 100 scale, 0 no effect, 100 complete control
Outline: as §1

[18] = system: ragweed (common ragweed, Ambrosia elatior); test: as above; details: for Plant response rating (0 to 100 scale), Ragweed: 0 is no effect, 100 is complete control; for Ragweed plant response rating: 0 to 100 scale, 0 no effect, 100 complete control
Outline: as §1

[19] = system: ryegrass, It. (Italian ryegrass, Lolium multiflorum); test: as above; details: for Plant response rating (0 to 100 scale), Ryegrass, It.: 0 is no effect, 100 is complete control; for Ryegrass, It. plant response rating: 0 to 100 scale, 0 no effect, 100 complete control
Outline: as §1

[20] = system: wheat (Triticum aestivum); test: as above; details: for Plant response rating (0 to 100 scale), Wheat: 0 is no effect, 100 is complete control; for Wheat plant response rating: 0 to 100 scale, 0 no effect, 100 complete control
Outline: as §1

SMILES	Plant response rating (0 to 100 scale), Foxtail, Green ([1]; 31 g ai/ha)	Plant response rating (0 to 100 scale), Foxtail, Green ([1]; 125 g ai/ha)	Plant response rating (0 to 100 scale), Barnyardgrass ([2]; 31 g ai/ha)	Plant response rating (0 to 100 scale), Barnyardgrass ([2]; 125 g ai/ha)	Plant response rating (0 to 100 scale), Kochia ([3]; 31 g ai/ha)	Plant response rating (0 to 100 scale), Kochia ([3]; 125 g ai/ha)	Plant response rating (0 to 100 scale), Pigweed ([4]; 31 g ai/ha)	Plant response rating (0 to 100 scale), Pigweed ([4]; 125 g ai/ha)	Plant response rating (0 to 100 scale), Ragweed ([5]; 31 g ai/ha)	Plant response rating (0 to 100 scale), Ragweed ([5]; 125 g ai/ha)	Plant response rating (0 to 100 scale), Ryegrass, It. ([6]; 31 g ai/ha)	Plant response rating (0 to 100 scale), Ryegrass, It. ([6]; 125 g ai/ha)	Barnyardgrass plant response rating (0 to 100 scale, 0 is no effect, 100 is complete control) [7]	Ducksalad plant response rating (0 to 100 scale, 0 is no effect, 100 is complete control) [8]	Rice plant response rating (0 to 100 scale, 0 is no effect, 100 is complete control) [9]	Sedge, Umbrella plant response rating (0 to 100 scale, 0 is no effect, 100 is complete control) [10]	Foxtail, Green plant response rating ([11]; 125 g ai/ha)	Barnyardgrass plant response rating ([12]; 31 g ai/ha)	Barnyardgrass plant response rating ([12]; 125 g ai/ha)	Blackgrass plant response rating ([13]; 125 g ai/ha)	other results
Cn1nc(Cl)c(O)c(-c2cccc3c2nnn3C)c1=O [Compound 61]	0	0	0	0	0	0	0	0	0	0	0	0	0	0	0	0	0	0	0	0	Plant response rating (0 to 100 scale), Foxtail, Green ([11]; 31 g ai/ha): 0; Blackgrass plant response rating ([13]; 31 g ai/ha): 0; Plant response rating (0 to 100 scale), Corn ([14]; 31 g ai/ha): 0; Corn plant response rating ([14]; 125 g ai/ha): 0; Plant response rating (0 to 100 scale), Galium ([15]; 31 g ai/ha): 0; Galium plant response rating ([15]; 125 g ai/ha): 0; Plant response rating (0 to 100 scale), Kochia ([16]; 31 g ai/ha): 0; Kochia plant response rating ([16]; 125 g ai/ha): 0; Plant response rating (0 to 100 scale), Pigweed ([17]; 31 g ai/ha): 0; Pigweed plant response rating ([17]; 125 g ai/ha): 0; Plant response rating (0 to 100 scale), Ragweed ([18]; 31 g ai/ha): 0; Ragweed plant response rating ([18]; 125 g ai/ha): 0; Plant response rating (0 to 100 scale), Ryegrass, It. ([19]; 31 g ai/ha): 0; Ryegrass, It. plant response rating ([19]; 125 g ai/ha): 0; Plant response rating (0 to 100 scale), Wheat ([20]; 31 g ai/ha): 0; Wheat plant response rating ([20]; 125 g ai/ha): 0
Cc1nn(C)c(=O)c(-c2ccc(Cl)c3ccoc23)c1O [Compound 56]	0	0	0	0	0	0	0	40	0	0	10	70	0	0	0	0	10	0	10	0	Foxtail, Green plant response rating ([11]; 31 g ai/ha): 0; Blackgrass plant response rating ([13]; 31 g ai/ha): 0; Corn plant response rating ([14]; 31 g ai/ha): 0; Corn plant response rating ([14]; 125 g ai/ha): 0; Galium plant response rating ([15]; 31 g ai/ha): 60; Galium plant response rating ([15]; 125 g ai/ha): 100; Kochia plant response rating ([16]; 31 g ai/ha): 0; Kochia plant response rating ([16]; 125 g ai/ha): 0; Pigweed plant response rating ([17]; 31 g ai/ha): 0; Pigweed plant response rating ([17]; 125 g ai/ha): 0; Ragweed plant response rating ([18]; 31 g ai/ha): 0; Ragweed plant response rating ([18]; 125 g ai/ha): 0; Ryegrass, It. plant response rating ([19]; 31 g ai/ha): 50; Ryegrass, It. plant response rating ([19]; 125 g ai/ha): 50; Wheat plant response rating ([20]; 31 g ai/ha): 0; Wheat plant response rating ([20]; 125 g ai/ha): 0
Cc1nn(C)c(=O)c(-c2c(Br)ccc3c2cnn3C)c1O [Compound 65]	0	0	0	0	0	0	0	0	0	0	0	0	0	0	0	0	0	0	0	0	Plant response rating (0 to 100 scale), Foxtail, Green ([11]; 31 g ai/ha): 0; Blackgrass plant response rating ([13]; 31 g ai/ha): 0; Plant response rating (0 to 100 scale), Corn ([14]; 31 g ai/ha): 0; Corn plant response rating ([14]; 125 g ai/ha): 0; Plant response rating (0 to 100 scale), Galium ([15]; 31 g ai/ha): 0; Galium plant response rating ([15]; 125 g ai/ha): 0; Plant response rating (0 to 100 scale), Kochia ([16]; 31 g ai/ha): 0; Kochia plant response rating ([16]; 125 g ai/ha): 0; Plant response rating (0 to 100 scale), Pigweed ([17]; 31 g ai/ha): 0; Pigweed plant response rating ([17]; 125 g ai/ha): 0; Plant response rating (0 to 100 scale), Ragweed ([18]; 31 g ai/ha): 0; Ragweed plant response rating ([18]; 125 g ai/ha): 0; Plant response rating (0 to 100 scale), Ryegrass, It. ([19]; 31 g ai/ha): 0; Ryegrass, It. plant response rating ([19]; 125 g ai/ha): 0; Plant response rating (0 to 100 scale), Wheat ([20]; 31 g ai/ha): 0; Wheat plant response rating ([20]; 125 g ai/ha): 0
CCC(=O)Oc1c(C)nn(C)c(=O)c1-c1c(C(F)(F)F)ccc2cc(C)oc12 [Compound 47]	0	0	0	30	40	50	60	100	20	80	0	80	0	0	0	0	10	0	10	0	Foxtail, Green plant response rating ([11]; 31 g ai/ha): 0; Corn plant response rating ([14]; 31 g ai/ha): 0; Corn plant response rating ([14]; 125 g ai/ha): 0; Galium plant response rating ([15]; 31 g ai/ha): 70; Galium plant response rating ([15]; 125 g ai/ha): 80; Kochia plant response rating ([16]; 31 g ai/ha): 40; Kochia plant response rating ([16]; 125 g ai/ha): 70; Pigweed plant response rating ([17]; 31 g ai/ha): 90; Pigweed plant response rating ([17]; 125 g ai/ha): 90; Ragweed plant response rating ([18]; 31 g ai/ha): 40; Ragweed plant response rating ([18]; 125 g ai/ha): 80; Ryegrass, It. plant response rating ([19]; 31 g ai/ha): 0; Ryegrass, It. plant response rating ([19]; 125 g ai/ha): 30; Wheat plant response rating ([20]; 31 g ai/ha): 0; Wheat plant response rating ([20]; 125 g ai/ha): 0
CCC(=O)Oc1c(C)nn(C)c(=O)c1-c1c(Br)ccc2c1cnn2C [Compound 64]	0	0	0	0	0	0	0	0	0	0	0	0	0	0	0	0	0	0	0	0	Plant response rating (0 to 100 scale), Foxtail, Green ([11]; 31 g ai/ha): 0; Blackgrass plant response rating ([13]; 31 g ai/ha): 60; Plant response rating (0 to 100 scale), Corn ([14]; 31 g ai/ha): 0; Corn plant response rating ([14]; 125 g ai/ha): 0; Plant response rating (0 to 100 scale), Galium ([15]; 31 g ai/ha): 30; Galium plant response rating ([15]; 125 g ai/ha): 50; Plant response rating (0 to 100 scale), Kochia ([16]; 31 g ai/ha): 0; Kochia plant response rating ([16]; 125 g ai/ha): 0; Plant response rating (0 to 100 scale), Pigweed ([17]; 31 g ai/ha): 0; Pigweed plant response rating ([17]; 125 g ai/ha): 0; Plant response rating (0 to 100 scale), Ragweed ([18]; 31 g ai/ha): 0; Ragweed plant response rating ([18]; 125 g ai/ha): 0; Plant response rating (0 to 100 scale), Ryegrass, It. ([19]; 31 g ai/ha): 0; Ryegrass, It. plant response rating ([19]; 125 g ai/ha): 0; Plant response rating (0 to 100 scale), Wheat ([20]; 31 g ai/ha): 0; Wheat plant response rating ([20]; 125 g ai/ha): 0
